Consider one molecule from ChEMBL document CHEMBL5338798, “An Analysis of Successful Hit-to-Clinical Candidate Pairs” (J Med Chem, 2023).

pIC50: −log10 of the molar value.

The target in this assay is T1, Tyrosine-protein phosphatase non-receptor type 11 (Homo sapiens, UniProt Q06124).
T1 sequence (Q06124 whole entry): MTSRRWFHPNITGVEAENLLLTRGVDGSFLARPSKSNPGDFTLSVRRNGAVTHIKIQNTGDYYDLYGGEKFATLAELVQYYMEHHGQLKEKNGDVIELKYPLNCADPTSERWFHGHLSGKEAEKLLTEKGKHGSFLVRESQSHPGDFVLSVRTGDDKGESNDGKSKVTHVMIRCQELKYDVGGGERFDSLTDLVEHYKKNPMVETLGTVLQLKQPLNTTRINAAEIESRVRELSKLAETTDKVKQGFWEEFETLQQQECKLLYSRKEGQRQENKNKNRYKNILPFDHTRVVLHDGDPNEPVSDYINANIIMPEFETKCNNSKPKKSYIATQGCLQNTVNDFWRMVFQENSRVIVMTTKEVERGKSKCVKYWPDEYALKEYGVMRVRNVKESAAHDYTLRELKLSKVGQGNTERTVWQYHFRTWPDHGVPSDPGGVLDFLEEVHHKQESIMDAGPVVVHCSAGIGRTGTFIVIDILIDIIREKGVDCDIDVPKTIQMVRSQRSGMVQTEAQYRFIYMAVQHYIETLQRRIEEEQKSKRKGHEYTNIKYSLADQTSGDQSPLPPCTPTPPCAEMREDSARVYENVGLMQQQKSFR
Nature of the assay: Inhibition of SHP2 (unknown origin).

Consider `CC1(N)CCN(c2cnc(Sc3cccc(Cl)c3Cl)c(N)n2)CC1`, for which the negative-log IC50 (pIC50) (in general, −log10 of the IC50, conventionally taken in molar units) was 7.52.
